Holding throughout (assay): relative viability (nuclei count vs DMSO), 5 days (fraction); higher = more cells survive
Compound in the experiment “PAC-1 + AZD7762”: C=CCc1cccc(/C=N/NC(=O)CN2CCN(Cc3ccccc3)CC2)c1O [PAC-1] + NC(=O)Nc1cc(-c2cccc(F)c2)sc1C(=O)N[C@H]1CCCNC1 [AZD7762] (partner 0.2 µM)
In outline:
(§1)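 Dosing by pin tool came one day after lung cancer cell lines were seeded in 1536-well plates, using either one drug or a fixed anchor-drug dose plus five library-drug doses (not always all listed) in √10 steps. After 5 days, nuclei were counted on 4× images. Relative viability is treated-well nuclei count divided by vehicle-well nuclei count, and values are medians of duplicate plates.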

Compound in the experiment “Ibrutinib + AZD7762”: C=CC(=O)N1CCC[C@@H](n2nc(-c3ccc(Oc4ccccc4)cc3)c3c(N)ncnc32)C1 [Ibrutinib] + NC(=O)Nc1cc(-c2cccc(F)c2)sc1C(=O)N[C@H]1CCCNC1 [AZD7762] (partner 0.2 µM)
The gist of the method: as §1

Compound in the experiment “Ibrutinib + Pictilisib”: C=CC(=O)N1CCC[C@@H](n2nc(-c3ccc(Oc4ccccc4)cc3)c3c(N)ncnc32)C1 [Ibrutinib] + CS(=O)(=O)N1CCN(Cc2cc3nc(-c4cccc5[nH]ncc45)nc(N4CCOCC4)c3s2)CC1 [Pictilisib] (partner 1 µM)
In outline: as §1

Compound in the experiment “PAC-1 + Trametinib”: C=CCc1cccc(/C=N/NC(=O)CN2CCN(Cc3ccccc3)CC2)c1O [PAC-1] + CC(=O)Nc1cccc(-n2c(=O)n(C3CC3)c(=O)c3c(Nc4ccc(I)cc4F)n(C)c(=O)c(C)c32)c1 [Trametinib] (partner 0.02 µM)
The gist of the method:
as §1

Turning to EKVX, the relative viability was determined as 0.638 with PAC-1 + AZD7762 (first compound 0.02 µM); 0.75 in the experiment with PAC-1 + AZD7762 (first compound 0.06325 µM); 0.664 with PAC-1 + AZD7762 (first compound 0.2 µM); 0.62 with PAC-1 + AZD7762 (first compound 2 µM); 0.75 in the experiment with Ibrutinib + AZD7762 (first compound 0.005 µM); 0.61 with Ibrutinib + AZD7762 (first compound 0.01581 µM). In addition, the relative viability was 0.605 with Ibrutinib + AZD7762 (first compound 0.05 µM); 0.732 with Ibrutinib + AZD7762 (first compound 0.1581 µM); 0.246 with Ibrutinib + AZD7762 (first compound 0.5 µM); 0.341 with Ibrutinib + Pictilisib (first compound 0.005 µM); 0.391 in the experiment with Ibrutinib + Pictilisib (first compound 0.01581 µM); 0.435 with Ibrutinib + Pictilisib (first compound 0.05 µM). Also, the relative viability in the experiment with Ibrutinib + Pictilisib (first compound 0.1581 µM) came out at 0.461; with Ibrutinib + Pictilisib (first compound 0.5 µM) it was 0.278; with PAC-1 + Trametinib (first compound 0.02 µM), 0.369; with PAC-1 + Trametinib (first compound 0.06325 µM), 0.314; with PAC-1 + Trametinib (first compound 0.2 µM), 0.314; with PAC-1 + Trametinib (first compound 2 µM), 0.35.
NCI-H23: the relative viability was determined as 0.242 in the experiment with PAC-1 + AZD7762 (first compound 0.02 µM); 0.349 with PAC-1 + AZD7762 (first compound 0.06325 µM); 0.244 with PAC-1 + AZD7762 (first compound 0.2 µM); 0.314 with PAC-1 + AZD7762 (first compound 2 µM); 0.263 in the experiment with Ibrutinib + AZD7762 (first compound 0.005 µM); 0.237 with Ibrutinib + AZD7762 (first compound 0.01581 µM). For the same cell line, the relative viability in the experiment with Ibrutinib + AZD7762 (first compound 0.05 µM) amounted to 0.234; with Ibrutinib + AZD7762 (first compound 0.1581 µM), 0.218; with Ibrutinib + AZD7762 (first compound 0.5 µM), 0.283; in the experiment with Ibrutinib + Pictilisib (first compound 0.005 µM), 0.319; with Ibrutinib + Pictilisib (first compound 0.01581 µM) it was 0.458; in the experiment with Ibrutinib + Pictilisib (first compound 0.05 µM), 0.562. For the same cell line, the relative viability was found to be 0.391 in the experiment with Ibrutinib + Pictilisib (first compound 0.1581 µM); 0.395 in the experiment with Ibrutinib + Pictilisib (first compound 0.5 µM); 0.308 with PAC-1 + Trametinib (first compound 0.02 µM); 0.388 in the experiment with PAC-1 + Trametinib (first compound 0.06325 µM); 0.336 with PAC-1 + Trametinib (first compound 0.2 µM); 0.442 with PAC-1 + Trametinib (first compound 2 µM).
For NCI-H1792, the relative viability with PAC-1 + AZD7762 (first compound 0.02 µM) turned out to be 0.673; in the experiment with PAC-1 + AZD7762 (first compound 0.06325 µM), 0.672; in the experiment with PAC-1 + AZD7762 (first compound 0.2 µM) it was 0.562; with PAC-1 + AZD7762 (first compound 2 µM) it was 0.679; with Ibrutinib + AZD7762 (first compound 0.01581 µM) it was 0.693; in the experiment with Ibrutinib + AZD7762 (first compound 0.05 µM), 0.6. Also, the relative viability came out at 0.636 in the experiment with Ibrutinib + AZD7762 (first compound 0.1581 µM); 0.515 with Ibrutinib + AZD7762 (first compound 0.5 µM); 0.286 with Ibrutinib + Pictilisib (first compound 0.005 µM); 0.25 in the experiment with Ibrutinib + Pictilisib (first compound 0.01581 µM); 0.23 with Ibrutinib + Pictilisib (first compound 0.05 µM); 0.295 in the experiment with Ibrutinib + Pictilisib (first compound 0.1581 µM). Moreover, the relative viability in the experiment with Ibrutinib + Pictilisib (first compound 0.5 µM) was 0.242; with PAC-1 + Trametinib (first compound 0.02 µM), 0.475; in the experiment with PAC-1 + Trametinib (first compound 0.06325 µM), 0.402; in the experiment with PAC-1 + Trametinib (first compound 0.2 µM), 0.392; with PAC-1 + Trametinib (first compound 2 µM) it was 0.468.
Turning to NCI-H3122, the relative viability in the experiment with PAC-1 + AZD7762 (first compound 0.02 µM) was determined as 0.896; with PAC-1 + AZD7762 (first compound 0.06325 µM), 0.906; in the experiment with PAC-1 + AZD7762 (first compound 0.2 µM), 0.93; with PAC-1 + AZD7762 (first compound 2 µM), 0.988; in the experiment with Ibrutinib + AZD7762 (first compound 0.005 µM) it was 1.16; with Ibrutinib + AZD7762 (first compound 0.01581 µM), 0.946. In addition, the relative viability in the experiment with Ibrutinib + AZD7762 (first compound 0.05 µM) worked out at 1.03; in the experiment with Ibrutinib + AZD7762 (first compound 0.1581 µM) it was 0.885; with Ibrutinib + AZD7762 (first compound 0.5 µM), 0.992; in the experiment with Ibrutinib + Pictilisib (first compound 0.005 µM), 0.563; with Ibrutinib + Pictilisib (first compound 0.01581 µM) it was 0.61; with Ibrutinib + Pictilisib (first compound 0.05 µM), 0.69. The relative viability with Ibrutinib + Pictilisib (first compound 0.1581 µM) came to 0.375; in the experiment with Ibrutinib + Pictilisib (first compound 0.5 µM) it was 0.533; with PAC-1 + Trametinib (first compound 0.02 µM) it was 0.213; with PAC-1 + Trametinib (first compound 0.06325 µM), 0.253; with PAC-1 + Trametinib (first compound 0.2 µM), 0.205; with PAC-1 + Trametinib (first compound 2 µM) it was 0.189.

The values above are taken from the supplement of paper PMC10307832.
